Data set [1] has as its target T1, serotonin transporter (5-HTT) (Rattus norvegicus, UniProt P31652). Kind of data set: Competitive binding at the 5-HTT with [3H]paroxetine.
Data set [2] addresses T2, norepinephrine transporter (NET) (Rattus norvegicus, UniProt Q63380). The data set is described as follows: Competitive binding at the NET with [3H]nisoxetine.
Data set [3] addresses T3, dopamine transporter (DAT) (Rattus norvegicus, UniProt P23977). The data set is described as follows: Competitive binding at the DAT with [3H]WIN 35,428.
For data set [4], the system named is cocaine self-administration. The following applies: rhesus monkeys, multiple second-order schedule; cited from earlier work.
Data set [5] has as its target T3, dopamine transporter (DAT). The note with it: read-out: DAT, IC50 [3H]12; comparison data; cited from earlier work.
For data set [6], the target named is T1, serotonin transporter (5-HTT). The following applies: read-out: 5-HTT, Ki [3H]paroxetine; comparison data; cited from earlier work.
Data set [7] deals with T2, norepinephrine transporter (NET). The note with it: read-out: NET, Ki [3H]nisoxetine; comparison data; cited from earlier work.
Data set [8] deals with dopamine transporter (DAT). The following applies: cited from earlier work.
The test system of another data set is drug self-administration. The following applies: three rhesus monkeys; cited from earlier work.
The subject of another data set is reinforcement. The following applies: squirrel monkeys; cited from earlier work.

Molecules are shown by their SMILES. “Also recorded” adds a separate entry of the source. Like-named read-outs stand apart in the source and are kept apart here.

T1 sequence (P31652 whole entry): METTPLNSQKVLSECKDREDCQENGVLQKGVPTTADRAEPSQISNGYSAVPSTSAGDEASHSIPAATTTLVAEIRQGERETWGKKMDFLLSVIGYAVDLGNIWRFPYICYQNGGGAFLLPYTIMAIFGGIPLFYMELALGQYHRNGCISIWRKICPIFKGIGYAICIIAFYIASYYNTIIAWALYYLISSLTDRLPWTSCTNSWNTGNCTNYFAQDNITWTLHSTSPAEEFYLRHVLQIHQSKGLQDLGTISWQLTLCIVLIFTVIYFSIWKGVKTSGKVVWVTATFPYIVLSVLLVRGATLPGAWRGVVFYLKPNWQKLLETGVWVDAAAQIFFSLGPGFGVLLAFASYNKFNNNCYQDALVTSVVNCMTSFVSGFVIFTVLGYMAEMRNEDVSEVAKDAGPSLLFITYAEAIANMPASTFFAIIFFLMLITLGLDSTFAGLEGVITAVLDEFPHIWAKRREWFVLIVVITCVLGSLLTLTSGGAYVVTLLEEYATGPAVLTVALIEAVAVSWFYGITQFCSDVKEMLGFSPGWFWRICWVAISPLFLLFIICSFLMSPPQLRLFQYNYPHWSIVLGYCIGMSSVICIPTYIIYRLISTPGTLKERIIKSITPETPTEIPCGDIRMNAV
T2 sequence (Q63380 1-617): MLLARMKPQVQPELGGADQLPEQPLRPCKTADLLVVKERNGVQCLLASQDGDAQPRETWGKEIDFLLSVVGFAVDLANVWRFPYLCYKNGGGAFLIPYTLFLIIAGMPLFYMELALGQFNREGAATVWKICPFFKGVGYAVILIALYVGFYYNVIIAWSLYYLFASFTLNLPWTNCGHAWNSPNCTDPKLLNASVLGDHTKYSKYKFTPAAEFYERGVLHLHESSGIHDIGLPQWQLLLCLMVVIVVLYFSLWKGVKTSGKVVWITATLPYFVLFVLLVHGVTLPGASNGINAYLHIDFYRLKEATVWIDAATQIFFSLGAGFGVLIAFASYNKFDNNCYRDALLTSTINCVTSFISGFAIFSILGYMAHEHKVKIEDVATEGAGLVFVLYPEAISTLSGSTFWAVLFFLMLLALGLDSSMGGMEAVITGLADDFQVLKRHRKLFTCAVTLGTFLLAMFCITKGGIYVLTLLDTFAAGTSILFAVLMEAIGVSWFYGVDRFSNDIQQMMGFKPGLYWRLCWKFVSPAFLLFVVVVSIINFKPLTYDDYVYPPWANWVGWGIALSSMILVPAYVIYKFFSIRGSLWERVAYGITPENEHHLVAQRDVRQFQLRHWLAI
T3 sequence (P23977 whole entry): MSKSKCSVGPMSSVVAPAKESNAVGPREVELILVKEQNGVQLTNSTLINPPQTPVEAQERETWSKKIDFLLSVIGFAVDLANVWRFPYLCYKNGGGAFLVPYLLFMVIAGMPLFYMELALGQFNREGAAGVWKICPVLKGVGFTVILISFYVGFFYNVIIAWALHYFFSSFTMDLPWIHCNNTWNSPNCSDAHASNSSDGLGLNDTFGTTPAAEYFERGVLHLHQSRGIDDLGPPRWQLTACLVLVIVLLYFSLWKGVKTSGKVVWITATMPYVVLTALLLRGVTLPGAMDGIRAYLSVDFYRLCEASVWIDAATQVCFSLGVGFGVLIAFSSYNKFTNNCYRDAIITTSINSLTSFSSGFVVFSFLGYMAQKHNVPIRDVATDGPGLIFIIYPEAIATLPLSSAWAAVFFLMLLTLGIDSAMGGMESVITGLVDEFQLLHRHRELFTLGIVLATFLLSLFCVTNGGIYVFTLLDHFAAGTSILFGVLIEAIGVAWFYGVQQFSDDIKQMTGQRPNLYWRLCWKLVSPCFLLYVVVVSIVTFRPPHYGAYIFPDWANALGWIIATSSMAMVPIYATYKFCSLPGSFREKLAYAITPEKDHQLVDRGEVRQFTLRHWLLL

As to `COC(=O)[C@H]1[C@@H](c2ccc(OC)cc2)C[C@@H]2CC[C@H]1N2C` [7a, 3β-(4-Methoxyphenyl)tropane-2β-carboxylic Acid Methyl Ester], the inhibition constant (Ki) in data set [1] came out at 4.3 ± 0.5 nM; in data set [2], 1110 ± 64 nM.
In the case of `CCOc1ccc([C@H]2C[C@@H]3CC[C@H]([C@H]2C(=O)OC)N3C)cc1` [7b, 3β-(4-Ethoxyphenyl)tropane-2β-carboxylic Acid Methyl Ester], the Ki stood at 1.7 ± 0.4 nM in [1] and 1690 ± 50 nM in [2].
Consider `COC(=O)[C@H]1[C@@H](c2ccc(OC)c(F)c2)C[C@@H]2CC[C@H]1N2C` [7c, 3β-(3-Fluoro-4-methoxyphenyl)tropane-2β-carboxylic Acid Methyl Ester], for which the results for the Ki in data set [1] and in data set [2] were 4.8 ± 0.5 nM and 270 ± 50 nM, respectively.
On the same counts, the results for `COC(=O)[C@H]1[C@@H](c2ccc(OC)c(Br)c2)C[C@@H]2CC[C@H]1N2C` [7d, 3β-(3-Bromo-4-methoxyphenyl)tropane-2β-carboxylic Acid Methyl Ester] are 3.1 ± 0.1 nM and 160 ± 20 nM.
On the same counts, the results for `COC(=O)[C@H]1[C@@H](c2cc(I)c(OC)c(I)c2)C[C@@H]2CC[C@H]1N2C` [7g, 3β-(3,5-Diiodo-4-methoxyphenyl)tropane-2β-carboxylic Acid Methyl Ester] are 7.5 ± 0.8 nM and greater than 5000 nM.
On the same counts, the results for `COc1ccc([C@H]2C[C@@H]3CC[C@H]([C@H]2C(=O)OC(C)C)N3C)cc1` [8a, 3β-(4-Methoxyphenyl)tropane-2β-carboxylic Acid Isopropyl Ester] are 135 ± 35 nM and 2010 ± 200 nM.
For `COc1ccc([C@H]2C[C@@H]3CC[C@H]([C@H]2C(=O)OC2CC2)N3C)cc1` [8b, 3β-(4-Methoxyphenyl)tropane-2β-carboxylic Acid Cyclopropyl Ester], the Ki amounted to 29 ± 3 nM in data set [1] and 1230 ± 140 nM in [2].
`COc1ccc([C@H]2C[C@@H]3CC[C@H]([C@H]2C(=O)OC2CCC2)N3C)cc1` [8c, 3β-(4-Methoxyphenyl)tropane-2β-carboxylic Acid Cyclobutyl Ester]: the inhibition constant (Ki) was 100 ± 8 nM in data set [1] and greater than 3000 nM in data set [2].
As for `COc1ccc([C@H]2C[C@@H]3CC[C@H]([C@H]2C(=O)OCCc2ccc([N+](=O)[O-])cc2)N3C)cc1` [8d, 3β-(4-Methoxyphenyl)tropane-2β-carboxylic Acid 2-(4-Nitrophenyl)ethyl Ester], the Ki was 2.9 ± 0.2 nM in data set [1] and 330 ± 20 nM in [2].
As to `COc1ccc([C@H]2C[C@@H]3CC[C@H]([C@H]2C(=O)OCCc2ccc(N)cc2)N3C)cc1` [8e, 3β-(4-Methoxyphenyl)tropane-2β-carboxylic Acid 2-(4-Aminophenyl)ethyl Ester], the Ki in data set [1] stood at 8.3 ± 0.4 nM; in data set [2] it was 2200 ± 300 nM.
For the compound `COc1ccc([C@H]2C[C@@H]3CC[C@H]([C@H]2C(=O)OCCc2ccc(NC(C)=O)cc2)N3C)cc1` [8f, 3β-(4-Methoxyphenyl)tropane-2β-carboxylic Acid 2-(4-Acetylaminophenyl)ethyl Ester], the Ki was 5.5 ± 0.5 nM in data set [1] and 1460 ± 30 nM in data set [2].
As to `COc1ccc([C@H]2C[C@@H]3CC[C@H]([C@H]2C(=O)OCCc2ccc(N)c(Br)c2)N3C)cc1` [8g, 3β-(4-Methoxyphenyl)tropane-2β-carboxylic Acid 2-(3-Bromo-4-aminophenyl)ethyl Ester], the inhibitory constant (Ki) in data set [1] was 4.1 ± 0.6 nM; in data set [2], 1850 ± 90 nM.
On the same counts, the results for `COc1ccc([C@H]2C[C@@H]3CC[C@H]([C@H]2C(=O)OCCc2cc(Br)c(N)c(Br)c2)N3C)cc1` [8h, 3β-(4-Methoxyphenyl)tropane-2β-carboxylic Acid 2-(3,5-Dibromo-4-aminophenyl)ethyl Ester] are 2 ± 0.4 nM and 2710 ± 250 nM.
On the same counts, the results for `COc1ccc([C@H]2C[C@@H]3CC[C@H]([C@H]2C(=O)OCCc2ccc(N)c(I)c2)N3C)cc1` [8i, 3β-(4-Methoxyphenyl)tropane-2β-carboxylic Acid 2-(3-Iodo-4-aminophenyl)ethyl Ester] are 3.5 ± 1 nM and 2040 ± 300 nM.
Regarding `COc1ccc([C@H]2C[C@@H]3CC[C@H]([C@H]2C(=O)OCCc2cc(I)c(N)c(I)c2)N3C)cc1` [8j, 3β-(4-Methoxyphenyl)tropane-2β-carboxylic Acid 2-(3,5-Diiodo-4-aminophenyl)ethyl Ester], the IC50 in data set [3] is 100 nM. Moreover, the Ki was 1 ± 0.1 nM in [1] and 2600 ± 200 nM in data set [2].
`Cc1ccc(-c2cc([C@@H]3C4CCC(C[C@@H]3c3ccc(Cl)cc3)N4C)on2)cc1` (stereo partly drawn) [compound 3, 3β-(4-chlorophenyl)-2β-[3-(4′-methylphenyl)isoxazol-5-yl]tropane]: the “Cocaine maintained responding after pretreatment” value in data set [4] is “dose-dependent reduction”.
With `COC(=O)[C@H]1[C@@H](c2ccc(Cl)c(C)c2)C[C@@H]2CC[C@H]1N2C` [compound 6, 3β-(4-Chloro-3-methylphenyl)tropane-2β-carboxylic acid methyl ester], the 50% inhibitory concentration (IC50) in data set [5] was 0.82 ± 0.05 nM. The Ki in data set [6] is 0.95 ± 0.04 nM; in [7], 21.8 ± 0.6 nM. The values for the DAT occupancy result in [8] (at the ED50 for reduction of cocaine self-administration) and in [8] (highest dose tested) were “no detectable; also recorded: below the limits of detection” and “greater than 70%”, respectively. Moreover, the “Maintenance of drug self-administration” value in the data set on drug self-administration is on record as “failed to maintain robust drug self-administration”. In addition, the Reinforcement effects entry in the data set on reinforcement is on record as “did not exhibit any reinforcement effects”.
On to `COc1ccc([C@H]2C[C@@H]3CC[C@H]([C@H]2c2cc(-c4ccc(C)cc4)no2)N3C)cc1` [compound 9, 3β-(4-Methoxyphenyl)-2β-[3-(4′-methylphenyl)isoxazol-5-yl]tropane], for which the figures for the inhibitory constant (Ki) in data set [1] and in data set [2] were 860 ± 170 nM and greater than 3000 nM, respectively.

(Values after article PMC2841478 (Journal of medicinal chemistry, 2008).)
